Source: patent US12714754B2, “Delivery of cyclic compound by using carrier” (priority 2018, dated 2026)
pIC50: −log10 of the molar value.

Key:
PANC-1 = experiment: Toxicity test against cultured cells (CCK-8); type: cell-based; conditions: Homo sapiens, 48 hours, Val concentration, cell survival by CCK-8
Procedure: (§1) Human pancreatic adenocarcinoma cells (B×PC3 cells, Panc-cells, or MiaPaCa cells) were seeded into a 96-well plate (5,000 cells/well). After 24 hours, a Val-encapsulating polymeric micelle solution prepared by adding 0.3 equivalent of Val to PEG-P(Asp-BH) or Val alone was added at various Val concentrations. After 48 hours, the cells were washed with PBS, and a medium was added. After that, Cell Counting Kit-8 (CCK-8, 10 μL/well) was added to the medium, and 30 minutes later, UV absorbance at 450 nm was measured.

MiaPaCa = experiment: Toxicity test against cultured cells (CCK-8); type: cell-based; conditions: Homo sapiens, MIA PaCa-2, 48 hours, Val concentration, cell survival by CCK-8
Procedure: as §1

BxPC3 = experiment: Toxicity test against cultured cells (CCK-8); type: cell-based; conditions: Homo sapiens, BXPC-3, 48 hours, Val concentration, cell survival by CCK-8
Procedure: as §1

[1] = system: subcutaneous tumor model mice (B×PC3); experiment: Antitumor effect on tumor-bearing mice; type: in vivo; conditions: 1.5 mg/kg intraperitoneally
Procedure: A Val-encapsulating polymeric micelle solution prepared by using PEG-P(Asp-BH) (administration amount of Val: 1.5 mg/kg), a valinomycin solution (1.5 mg/kg), or a gemcitabine solution (80 mg/kg) was intravenously administered (only the valinomycin solution was intraperitoneally administered) to the tail vein of subcutaneous tumor model mice (B×PC3) on day 0, day 2, and day 4, and the sizes of the tumors and the body weights of the mice after lapses of various times were measured (n=4).

CC(C)[C@@H]1NC(=O)[C@H](C)OC(=O)[C@@H](C(C)C)NC(=O)[C@@H](C(C)C)OC(=O)[C@H](C(C)C)NC(=O)[C@H](C)OC(=O)[C@@H](C(C)C)NC(=O)[C@@H](C(C)C)OC(=O)[C@H](C(C)C)NC(=O)[C@H](C)OC(=O)[C@@H](C(C)C)NC(=O)[C@@H](C(C)C)OC1=O [Val, valinomycin]
pIC50 (PANC-1): 8.08 | pIC50 (MiaPaCa): 7.63 | pIC50 (BxPC3): 7.90 | death of all the mice, time after the initial administration [1]: ≤ 24 h
